Laboratory results reported in US20120059005A1, “COMBINATION OF (A) A PHOSPHOINOSITIDE 3-KINASE INHIBITOR AND (B) AN ANTIDIABETIC COMPOUND FOR USE IN THE TREATMENT OF PROLIFERATIVE DISEASES” (NOVARTIS AG, priority 2009, published 2012).

Test system: H460 non-small cell lung tumors
Assay: H460 xenograft 12-day tumor growth inhibition assay
Assay type: in vivo, nude mice
Settings: for Mean Tumor Vol. Change / Regression / T/C: Day 12
Procedure: H460 human non-small cell lung cancer (NSCLC) cells are treated with, different doses of 2-Methyl-2-[4-(3-methyl-2-oxo-8-quinolln-3-yl-2,3-dihydro-imidazo[4, 5-c]quinolin-1-yl)-phenyl]-propionitrile monotosylate salt (also known as COMPOUND A) or 5,-(2,6-di-rnorpholin-4-yl-pyrimidin-4-yl)-4-trifluoromethyl-pyridin-2-ylamine hydrochloride salt (also known as COMPOUND C), a single dose of metformin or both agents in combination, The H460 human NSCLC cells (NCl-H460. ATCC-HTB-177, available from American Type Culture Collection, FRockville, Md. US) are derived from the pleural fluid of a patient with large cell cancer of the lung.
H460 tumor cells are grown in RPMI 1640 medium containing 100 units/mL penicillin G sodium, 100 μg/mL streptomycin sulfate, and 25 μg/mL gentamicin. The medium is supplemented with 10% fetal bovine serum and 2 mM glutamine. The cells are cultured in tissue culture flasks in a humidified incubator at 37° C., in an atmosphere of 5% CO2 and 95% air. The cells are harvested for injection into 9-week old female nu/nu (nude) mice (Harlan Laboratories, Indianapolis, Ind.) by detaching the monolayers with 2× trypsin and resuspending at 5×10^7 cells/mL in phosphate-buffered saline.
0.2 mL of H460 tumor cell suspension (1×10^7 cells) is injected subcutaneously in the right flank of 9-week old female nu/nu (nude) mice (Harlan Laboratories, Indianapolis, Ind.) having a body weight (BW) range of 18.1-26.9 g on Day 1 of the study. Tumors are monitored twice weekly and then daily as their mean volume approaches 100-150 mm^3. Ten days after implantation, the mice are sorted into 11 groups of eight mice having individual tumor sizes of 75-196 mm^3 and a group mean tumor size of 119-122 mm^3. Tumor volume in mm^3 is determined using the formula [(width)^2×(length)]/2, where width width of the tumor in mm and length length of the tumor in mm. Tumor weight can be estimated with the assumption that 1 mg is equivalent to 1 mm^3 of tumor volume.
The 11 groups of nude mice are treated as follows. One group of eight mice serves as Controls (C or Control) for all analyses and is administered intraperitoneally (i.p.) 50 mM sodium acetate at pH 4 (Vehicle 1) and then administered by oral gavage (p.o.) a composition comprising 10% N-methylpyrrolidone 90% polyethylene glycol 300 (PEG300) (Vehicle 2). […] Metformin is dissolved in 50 mM sodium acetate at pH 4 for dosing.
Compound A is stored at −20° C. Compound C is stored at −20° C. protected from light. Stock solutions (10×) in 100% N-rnethylpyrrolidone (NMP) are prepared every five days, aliquotted, and stored in the dark at room temperature. On each treatment day, stock solution aliquots are diluted with polyethylene glycol (PEG300) to provide the formulated drug (Compound A or Compound C) in 10% NMP: 90% PEG300. Dosing solutions are protected from light, and the formulated drug is administered within 1 hour after preparation.
For combination therapies, Compound A or Compound C are administered by oral gavage (p.o.) within 30 minutes after the intraperitoneal (i.p.) administration of metformin, except on Day 20 when Compound A or Compound C is given immediately after metformin.
Paclitaxel (Natural Pharmaceuticals, Inc., Beverly, Mass., USA) is administered by bolus tail-vein injections (i.v.) once daily on alternate days for five doses. Paclitaxel is dissolved in 50% ethanol and 50% Crernophor® EL to prepare a 10× stock solution stored at room temperature. On each day of dosing, an aliquot of the paclitaxel stock solution is diluted with 5% dextrose in water to yield a dosing solution containing 5% ethanol and 5% Cremophor® EL.
In all groups, the dosing volume of 10 mL/kg (0.2 mL/20 g mouse) is scaled to the weight of each animal as determined on the day of dosing, except on weekends when the previous BW is carried fontvard.

[1] = Metformin 192.3 mg/kg i.p., 1x daily
[2] = Compound A 41.1 mg/kg p.o., 1x daily
[3] = Compound A 68.5 mg/kg p.o., 1x daily
[4] = Paclitaxel 30 mg/kg i.v., 1x on alternate days for 5 doses
[5] = Compound C 32.7 mg/kg p.o., 1x daily
[6] = Compound C 54.4 mg/kg p.o., 1x daily until day 10 (stopped due to toxicity)

For CN(C)C(=N)N=C(N)N [Metformin, dimethyldiguanide, reference compound], the “Mean Tumor Vol. Change” value [1] was 1516 mm^3, the Regression [1] was “None” and the T/C [1] was 101% (ns,. For the same compound, the “enhancement of efficacy or tolerability in combination with COMPOUND C” value (metformin in combination with COMPOUND C, overall conclusion) was “does not appear to enhance efficacy or tolerability” and the “impact on tumor growth in the 12-day tumor growth inhibition assay” value (metformin monotherapy at 192.3 mg/kg) was “did not appear to impact tumor growth”.
Cn1c(=O)n(-c2ccc(C(C)(C)C#N)cc2)c2c3cc(-c4cnc5ccccc5c4)ccc3ncc21 [Compound A, 2-Methyl-2-[4-(3-methyl-2-oxo-8-quinolin-3-yl-2,3-dihydro-imidazo[4,5-c]quinolin-1-yl)-phenyl]-propionitrile] was tested, and the “Mean Tumor Vol. Change” value [2] was 809 mm^3, the Regression [2] was “None” and the T/C [2] was 54% (ns,. For the same compound, the “Mean Tumor Vol. Change” value [3] was 448 mm^3, the Regression [3] was “None” and the T/C [3] was 30% (ns,.
For CC(=O)O[C@H]1C(=O)[C@@]2(C)[C@H]([C@H](OC(=O)c3ccccc3)[C@]3(O)C[C@H](OC(=O)[C@H](O)[C@@H](NC(=O)c4ccccc4)c4ccccc4)C(C)=C1C3(C)C)[C@]1(OC(C)=O)CO[C@@H]1C[C@@H]2O [Paclitaxel, reference compound], the “Mean Tumor Vol. Change” value [4] was 227 mm^3, the Regression [4] was “None” and the T/C [4] was 15%.
In the case of Nc1cc(C(F)(F)F)c(-c2cc(N3CCOCC3)nc(N3CCOCC3)n2)cn1 [Compound C, 5-(2,6-di-morpholin-4-yl-pyrimidin-4-yl)-4-trifluoromethyl-pyridin-2-ylamine], the “Mean Tumor Vol. Change” value [5] is reported as 880 mm^3, the Regression [5] is reported as “None” and the T/C [5] is reported as 59% (ns,. For the same compound, the “Mean Tumor Vol. Change” value [6] was 110 mm^3, the Regression [6] was “None” and the T/C (Compound C 54.4 mg/kg p.o., 1x daily until day 10 (stopped due to toxicity), not evaluable (ne)) was 7% (ne,.
